Where a name gives a salt, the structure may show the parent alone.
What was measured:
[1] = test system: SK-N-MC neuroepithelioma cells; assay: 59Fe efflux from 59Fe-prelabeled SK-N-MC cells; type: cell-based; details: compound 50 μM, 3 h, 37° C.; SK-N-MC cells prelabeled 3 h with 59Fe-loaded transferrin (0.75 μM)
[2] = test system: SK-N-MC cells; assay: 59Fe uptake into SK-N-MC cells from 59Fe-loaded transferrin; type: cell-based; details: comparison with DFOB
[3] = oral; cited from earlier work
[4] = RP-HPLC relative hydrophobicity / logP correlation; details: C18 column, H2O/ACN 0.1% TFA gradient, free or Fe(III)-loaded ligand
[5] = standards used in RP-HPLC logP correlation; cited from earlier work

## CC(=O)N(O)CCCCCNC(=O)CCC(=O)N(O)CCCCCNC(=O)CCC(=O)N(O)CCCCCNC(=O)COc1ccc(C)cc1 [4-methylphenoxyacetate-DFOB, 4-methylphenoxyacetate-desferrioxamine B]
[1]
  Fe efflux (59Fe released from prelabeled cells): 31.6%
[2]
  competition with 59Fe-loaded transferrin for 59Fe, preventing accumulation of Fe within the cell: more efficient

## CC(=O)N(O)CCCCCNC(=O)CCC(=O)N(O)CCCCCNC(=O)CCC(=O)N(O)CCCCCNC(=O)CCCC[C@@H]1SC[C@@H]2NC(=O)N[C@@H]21 [Biotin-DFOB, biotin-desferrioxamine B]
[1]
  Fe efflux (59Fe released from prelabeled cells): 6.6%

## CC(=O)N(O)CCCCCNC(=O)CCC(=O)N(O)CCCCCNC(=O)CCC(=O)N(O)CCCCCN [DFOB, desferrioxamine B, reference compound]
[1]
  Fe efflux (59Fe released from prelabeled cells): 10.8%

## CC(=O)N(O)CCCCCNC(=O)CCC(=O)N(O)CCCCCNC(=O)CCC(=O)N(O)CCCCCN [Desferal, mesylate salt of desferrioxamine B]
[3]
  fraction of an orally administered dose absorbed: 15%

## CC(=O)N(O)CCCCCNC(=O)CCC(=O)N(O)CCCCCNC(=O)CCC(=O)N(O)CCCCCNC(=O)C12CC3CC(CC(C3)C1)C2 [adamantane-DFOB, adamantane-desferrioxamine B]
[1]
  Fe efflux (59Fe released from prelabeled cells): 28%
[2]
  competition with 59Fe-loaded transferrin for 59Fe, preventing accumulation of Fe within the cell: more efficient
[4]
  relative hydrophobicity / water solubility from RP-HPLC retention: least water soluble
[4]; listed as adamantane-desferrioxamine B
  relative hydrophobicity / water solubility from RP-HPLC retention: significantly more hydrophobic

## CC(=O)N(O)CCCCCNC(=O)CCC(=O)N(O)CCCCCNC(=O)CCC(=O)N(O)CCCCCNC(=O)c1ccc2c(c1)OCCOCCOCCOCCO2 [benzo-15-crown-5-4-carboxylate-DFOB, benzo-15-crown-5-4-carboxylate-desferrioxamine B]
[1]
  Fe efflux (59Fe released from prelabeled cells): 9.6%

## Oc1cccc2ccccc12 [α-naphthol]
[5]
  logP: 2.7

From patent US8309583B2, “Desferrioxamine conjugates, derivatives and analogues” (priority 2007, dated 2012)
